Assay results taken from patent US12727608B2, “Stable liquid animal feed ingredient” (PURAC BIOCHEM B.V., priority 2020, dated 2026).

Key:
Format in all cases: cell-based
Conditions in all cases: Experiment 2; 72 hours at 30° C.
[1] = tested on: Streptococcus suis DSM 9682; assay: MIC determination (Bioscreen growth)
[2] = tested on: Streptococcus suis DSM 28762; assay: MIC determination (Bioscreen growth)
[3] = tested on: Clostridium perfringens ATCC 13124

Measured: MIC value

CC(O)CO (stereo not drawn) [MPG, 1,2-propanediol]
>405 ppm: all assays above
